In PubChem BioAssay (NCI):
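48-hour exposure; five concentrations; linearly interpolated endpoints. At the TGI there is no net growth.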

Tests used:
Test in all cases: NCI tumour cell line growth inhibition, 48 h
OVCAR-4 ovarian = tested on: OVCAR-4 ovarian
NCI-H460 lung = tested on: NCI-H460 lung
PC-3 prostate = tested on: PC-3 prostate
MDA-MB-435 = tested on: MDA-MB-435
TK-10 renal = tested on: TK-10 renal
IGROV1 ovarian = tested on: IGROV1 ovarian
RPMI-8226 leukemia = tested on: RPMI-8226 leukemia
A498 renal = tested on: A498 renal
M14 melanoma = tested on: M14 melanoma
BT-549 breast = tested on: BT-549 breast
RXF 393 renal = tested on: RXF 393 renal
786-0 renal = tested on: 786-0 renal
NCI-H23 lung = tested on: NCI-H23 lung
SK-OV-3 ovarian = tested on: SK-OV-3 ovarian
DU-145 prostate = tested on: DU-145 prostate
SF-295 CNS = tested on: SF-295 CNS
NCI-H226 lung = tested on: NCI-H226 lung
HL-60(TB) leukemia = tested on: HL-60(TB) leukemia
MDA-N = tested on: MDA-N
T-47D breast = tested on: T-47D breast
CAKI-1 renal = tested on: CAKI-1 renal
MOLT-4 leukemia = tested on: MOLT-4 leukemia
HCT-15 colon = tested on: HCT-15 colon
UO-31 renal = tested on: UO-31 renal
NCI/ADR-RES ovarian = tested on: NCI/ADR-RES ovarian
MDA-MB-231 breast = tested on: MDA-MB-231 breast
K-562 leukemia = tested on: K-562 leukemia
EKVX NSCLC = tested on: EKVX NSCLC
COLO 205 colon = tested on: COLO 205 colon
HCT-116 colon = tested on: HCT-116 colon
MALME-3M melanoma = tested on: MALME-3M melanoma
OVCAR-5 ovarian = tested on: OVCAR-5 ovarian
OVCAR-8 ovarian = tested on: OVCAR-8 ovarian
U251 CNS = tested on: U251 CNS
SF-268 CNS = tested on: SF-268 CNS
SNB-75 CNS = tested on: SNB-75 CNS
HOP-92 NSCLC = tested on: HOP-92 NSCLC
CCRF-CEM leukemia = tested on: CCRF-CEM leukemia
HOP-62 NSCLC = tested on: HOP-62 NSCLC
SK-MEL-2 melanoma = tested on: SK-MEL-2 melanoma
SK-MEL-5 melanoma = tested on: SK-MEL-5 melanoma
KM12 colon = tested on: KM12 colon
SN12C renal = tested on: SN12C renal
MCF7 breast = tested on: MCF7 breast
HS 578T breast = tested on: HS 578T breast
HCC-2998 colon = tested on: HCC-2998 colon
SF-539 CNS = tested on: SF-539 CNS
SW-620 colon = tested on: SW-620 colon
SK-MEL-28 melanoma = tested on: SK-MEL-28 melanoma
ACHN renal = tested on: ACHN renal
UACC-257 melanoma = tested on: UACC-257 melanoma
NCI-H522 lung = tested on: NCI-H522 lung
SR leukemia = tested on: SR leukemia
LOX IMVI melanoma = tested on: LOX IMVI melanoma
A549 NSCLC = tested on: A549 NSCLC
OVCAR-3 ovarian = tested on: OVCAR-3 ovarian
SNB-19 CNS = tested on: SNB-19 CNS
HT29 colon = tested on: HT29 colon
UACC-62 melanoma = tested on: UACC-62 melanoma
XF 498 CNS = tested on: XF 498 CNS
DMS 273 small cell lung = tested on: DMS 273 small cell lung
DMS 114 small cell lung = tested on: DMS 114 small cell lung
DLD-1 colon = tested on: DLD-1 colon
KM20L2 colon = tested on: KM20L2 colon
M19-MEL melanoma = tested on: M19-MEL melanoma
LXFL 529 NSCLC = tested on: LXFL 529 NSCLC

SMILES: O=C(O)c1ccc(C(=O)c2ccccc2C(=O)O)cc1C(=O)O
- TGI (OVCAR-4 ovarian): > 100 µM
- TGI (NCI-H460 lung): > 100 µM
- TGI (PC-3 prostate): > 100 µM
- TGI (MDA-MB-435): > 100 µM
- TGI (TK-10 renal): > 100 µM
- TGI (IGROV1 ovarian): > 100 µM
- TGI (RPMI-8226 leukemia): > 100 µM
- TGI (A498 renal): > 100 µM
- TGI (M14 melanoma): > 100 µM
- TGI (BT-549 breast): > 100 µM
- TGI (RXF 393 renal): > 100 µM
- TGI (786-0 renal): > 100 µM
- TGI (NCI-H23 lung): > 100 µM
- TGI (SK-OV-3 ovarian): > 100 µM
- TGI (DU-145 prostate): > 100 µM
- TGI (SF-295 CNS): > 100 µM
- TGI (NCI-H226 lung): > 100 µM
- TGI (HL-60(TB) leukemia): > 100 µM
- TGI (MDA-N): > 100 µM
- TGI (T-47D breast): > 100 µM
- TGI (CAKI-1 renal): > 100 µM
- TGI (MOLT-4 leukemia): > 100 µM
- TGI (HCT-15 colon): > 100 µM
- TGI (UO-31 renal): > 100 µM
- TGI (NCI/ADR-RES ovarian): > 100 µM
- TGI (MDA-MB-231 breast): > 100 µM
- TGI (K-562 leukemia): > 100 µM
- TGI (EKVX NSCLC): > 100 µM
- TGI (COLO 205 colon): > 100 µM
- TGI (HCT-116 colon): > 100 µM
- TGI (MALME-3M melanoma): > 100 µM
- TGI (OVCAR-5 ovarian): > 100 µM
- TGI (OVCAR-8 ovarian): > 100 µM
- TGI (U251 CNS): > 100 µM
- TGI (SF-268 CNS): > 100 µM
- TGI (SNB-75 CNS): > 100 µM
- TGI (HOP-92 NSCLC): > 100 µM
- TGI (CCRF-CEM leukemia): > 100 µM
- TGI (HOP-62 NSCLC): > 100 µM
- TGI (SK-MEL-2 melanoma): > 100 µM
- TGI (SK-MEL-5 melanoma): > 100 µM
- TGI (KM12 colon): > 100 µM
- TGI (SN12C renal): > 100 µM
- TGI (MCF7 breast): > 100 µM
- TGI (HS 578T breast): > 100 µM
- TGI (HCC-2998 colon): > 100 µM
- TGI (SF-539 CNS): > 100 µM
- TGI (SW-620 colon): > 100 µM
- TGI (SK-MEL-28 melanoma): > 100 µM
- TGI (ACHN renal): > 100 µM
- TGI (UACC-257 melanoma): > 100 µM
- TGI (NCI-H522 lung): > 100 µM
- TGI (SR leukemia): > 100 µM
- TGI (LOX IMVI melanoma): > 100 µM
- TGI (A549 NSCLC): > 100 µM
- TGI (OVCAR-3 ovarian): > 100 µM
- TGI (SNB-19 CNS): > 100 µM
- TGI (HT29 colon): > 100 µM
- TGI (UACC-62 melanoma): > 100 µM

SMILES: O=C(c1ccccc1)c1c(CC(O)c2ccccn2)n(C(=O)c2ccccc2)c2ccccc12 (configuration not stated)
- TGI (OVCAR-4 ovarian): > 100 µM
- TGI (NCI-H460 lung): 57 µM
- TGI (XF 498 CNS): 46 µM
- TGI (TK-10 renal): > 100 µM
- TGI (IGROV1 ovarian): > 100 µM
- TGI (RPMI-8226 leukemia): 56 µM
- TGI (DMS 273 small cell lung): 58.3 µM
- TGI (M14 melanoma): 38.1 µM
- TGI (786-0 renal): > 100 µM
- TGI (NCI-H23 lung): 56.3 µM
- TGI (SF-295 CNS): 84.8 µM
- TGI (NCI-H226 lung): 54 µM
- TGI (CAKI-1 renal): > 100 µM
- TGI (MOLT-4 leukemia): 63.6 µM
- TGI (HCT-15 colon): 88.1 µM
- TGI (UO-31 renal): 67.5 µM
- TGI (K-562 leukemia): > 100 µM
- TGI (COLO 205 colon): 50.5 µM
- TGI (HCT-116 colon): 27.8 µM
- TGI (MALME-3M melanoma): 46 µM
- TGI (OVCAR-5 ovarian): 52.7 µM
- TGI (OVCAR-8 ovarian): 95.8 µM
- TGI (U251 CNS): 58 µM
- TGI (SF-268 CNS): > 100 µM
- TGI (SNB-75 CNS): 43.3 µM
- TGI (DMS 114 small cell lung): 71.9 µM
- TGI (DLD-1 colon): > 100 µM
- TGI (HOP-92 NSCLC): 57.5 µM
- TGI (CCRF-CEM leukemia): 80.5 µM
- TGI (HOP-62 NSCLC): 38.2 µM
- TGI (SK-MEL-2 melanoma): 30.9 µM
- TGI (SK-MEL-5 melanoma): 27.3 µM
- TGI (KM12 colon): > 100 µM
- TGI (HCC-2998 colon): 67.7 µM
- TGI (SF-539 CNS): 31.5 µM
- TGI (KM20L2 colon): 33.5 µM
- TGI (M19-MEL melanoma): 40.1 µM
- TGI (SW-620 colon): > 100 µM
- TGI (SK-MEL-28 melanoma): 39.6 µM
- TGI (ACHN renal): 96.6 µM
- TGI (LXFL 529 NSCLC): > 100 µM
- TGI (UACC-257 melanoma): 43.6 µM
- TGI (NCI-H522 lung): 47.2 µM
- TGI (SR leukemia): 50 µM
- TGI (A549 NSCLC): > 100 µM
- TGI (OVCAR-3 ovarian): 68.4 µM
- TGI (SNB-19 CNS): > 100 µM
- TGI (HT29 colon): 30.1 µM
- TGI (UACC-62 melanoma): 32.5 µM

SMILES: C=C1C(=O)O[C@H]2C/C(C)=C/CC[C@@]3(C)O[C@](C)(CC[C@@H]3I)[C@@H](I)C[C@@H]12
- TGI (OVCAR-4 ovarian): 14.3 µM
- TGI (NCI-H460 lung): 13.2 µM
- TGI (PC-3 prostate): 22.9 µM
- TGI (MDA-MB-435): 11.7 µM
- TGI (TK-10 renal): 12.4 µM
- TGI (IGROV1 ovarian): 6.62 µM
- TGI (RPMI-8226 leukemia): 5.12 µM
- TGI (A498 renal): 17.5 µM
- TGI (M14 melanoma): 27.1 µM
- TGI (BT-549 breast): 12.4 µM
- TGI (RXF 393 renal): 12.7 µM
- TGI (786-0 renal): 10.9 µM
- TGI (NCI-H23 lung): 18.5 µM
- TGI (SK-OV-3 ovarian): 14.4 µM
- TGI (DU-145 prostate): 11.8 µM
- TGI (SF-295 CNS): 15 µM
- TGI (NCI-H226 lung): 2.13 µM
- TGI (HL-60(TB) leukemia): 20.2 µM
- TGI (MDA-N): 10.9 µM
- TGI (T-47D breast): 15 µM
- TGI (CAKI-1 renal): 14 µM
- TGI (MOLT-4 leukemia): 13.6 µM
- TGI (HCT-15 colon): 12.2 µM
- TGI (UO-31 renal): 11.8 µM
- TGI (NCI/ADR-RES ovarian): 5.65 µM
- TGI (MDA-MB-231 breast): 14.7 µM
- TGI (K-562 leukemia): 29.9 µM
- TGI (EKVX NSCLC): 14.3 µM
- TGI (COLO 205 colon): 12.5 µM
- TGI (HCT-116 colon): 9.51 µM
- TGI (MALME-3M melanoma): 14.7 µM
- TGI (OVCAR-5 ovarian): 26.2 µM
- TGI (OVCAR-8 ovarian): 10.1 µM
- TGI (U251 CNS): 11.7 µM
- TGI (SF-268 CNS): 14.4 µM
- TGI (SNB-75 CNS): 12.4 µM
- TGI (HOP-92 NSCLC): 13 µM
- TGI (CCRF-CEM leukemia): 13.3 µM
- TGI (HOP-62 NSCLC): 15.6 µM
- TGI (SK-MEL-2 melanoma): 25.8 µM
- TGI (SK-MEL-5 melanoma): 9.92 µM
- TGI (KM12 colon): 18.5 µM
- TGI (SN12C renal): 16.4 µM
- TGI (MCF7 breast): 9.61 µM
- TGI (HS 578T breast): 26 µM
- TGI (HCC-2998 colon): 10.8 µM
- TGI (SF-539 CNS): 14.4 µM
- TGI (SW-620 colon): 12.4 µM
- TGI (SK-MEL-28 melanoma): 14.1 µM
- TGI (ACHN renal): 13.6 µM
- TGI (UACC-257 melanoma): 12.7 µM
- TGI (NCI-H522 lung): 8.64 µM
- TGI (SR leukemia): 8.2 µM
- TGI (LOX IMVI melanoma): 6.34 µM
- TGI (A549 NSCLC): 18.2 µM
- TGI (OVCAR-3 ovarian): 8.63 µM
- TGI (SNB-19 CNS): 13.5 µM
- TGI (HT29 colon): 14.9 µM
- TGI (UACC-62 melanoma): 12 µM
